Literature values, collected in patent US9763453B2, “Antimicrobial coating for inhibition of bacterial adhesion and biofilm formation” (Bacterin International, Inc., priority 2004, dated 2017).

Conditions: aqueous solutions

[Ag][I] [silver iodide]
Ksp: ~10^−18
